Paper PMC9927415, “Tyrosine Kinase Inhibitors Display Potent Activity against Cryptosporidium parvum” (Microbiology Spectrum, 2022)
Read-outs that look alike come from different tables or passages of the source.

What was measured:
Assay in all cases: KINOMEscan competitive binding
[1] = molecular target: T1, KDR (VEGFR2) (Homo sapiens, UniProt P35968); conditions: for inhibition at 10 µM: KINOMEscan, n=1, read-out: Percent inhibition, VEGFR2
T1 construct: purchased DiscoverX (KINOMEscan)
From the text: (§1) The kinases were expressed as fusions to T7 bacteriophage. This is a sensitive, competitive binding assay where test compounds were used to displace immobilized ATP-site binding probe ligands from kinases of interest. The amount of kinase that remained bound to the immobilized probe ligands on the solid support was quantified. Percentage inhibition data were was plotted on kinome trees using the web-based tool KinMap (http://www.kinhub.org/kinmap) ([60]).

[2] = molecular target: T2, LKB1 (Homo sapiens, UniProt Q15831)
T2 construct: purchased DiscoverX (KINOMEscan)
T2 sequence (Q15831 1-433): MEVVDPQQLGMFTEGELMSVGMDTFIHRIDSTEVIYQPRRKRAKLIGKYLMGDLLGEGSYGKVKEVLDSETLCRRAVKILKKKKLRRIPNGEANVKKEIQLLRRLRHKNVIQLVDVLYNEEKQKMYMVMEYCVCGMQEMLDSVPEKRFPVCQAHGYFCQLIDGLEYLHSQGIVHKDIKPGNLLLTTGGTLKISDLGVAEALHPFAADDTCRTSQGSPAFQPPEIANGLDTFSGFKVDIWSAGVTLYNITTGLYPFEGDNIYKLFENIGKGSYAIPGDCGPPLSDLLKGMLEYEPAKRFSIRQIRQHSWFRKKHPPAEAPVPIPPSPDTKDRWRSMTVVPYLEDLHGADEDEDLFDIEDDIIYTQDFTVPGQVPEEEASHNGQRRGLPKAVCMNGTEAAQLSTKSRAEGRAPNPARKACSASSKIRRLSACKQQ
From the text: as §1

[3] = molecular target: T3, PDGFRα (Homo sapiens, UniProt P16234)
T3 construct: purchased DiscoverX (KINOMEscan)
T3 sequence (P16234 24-1089): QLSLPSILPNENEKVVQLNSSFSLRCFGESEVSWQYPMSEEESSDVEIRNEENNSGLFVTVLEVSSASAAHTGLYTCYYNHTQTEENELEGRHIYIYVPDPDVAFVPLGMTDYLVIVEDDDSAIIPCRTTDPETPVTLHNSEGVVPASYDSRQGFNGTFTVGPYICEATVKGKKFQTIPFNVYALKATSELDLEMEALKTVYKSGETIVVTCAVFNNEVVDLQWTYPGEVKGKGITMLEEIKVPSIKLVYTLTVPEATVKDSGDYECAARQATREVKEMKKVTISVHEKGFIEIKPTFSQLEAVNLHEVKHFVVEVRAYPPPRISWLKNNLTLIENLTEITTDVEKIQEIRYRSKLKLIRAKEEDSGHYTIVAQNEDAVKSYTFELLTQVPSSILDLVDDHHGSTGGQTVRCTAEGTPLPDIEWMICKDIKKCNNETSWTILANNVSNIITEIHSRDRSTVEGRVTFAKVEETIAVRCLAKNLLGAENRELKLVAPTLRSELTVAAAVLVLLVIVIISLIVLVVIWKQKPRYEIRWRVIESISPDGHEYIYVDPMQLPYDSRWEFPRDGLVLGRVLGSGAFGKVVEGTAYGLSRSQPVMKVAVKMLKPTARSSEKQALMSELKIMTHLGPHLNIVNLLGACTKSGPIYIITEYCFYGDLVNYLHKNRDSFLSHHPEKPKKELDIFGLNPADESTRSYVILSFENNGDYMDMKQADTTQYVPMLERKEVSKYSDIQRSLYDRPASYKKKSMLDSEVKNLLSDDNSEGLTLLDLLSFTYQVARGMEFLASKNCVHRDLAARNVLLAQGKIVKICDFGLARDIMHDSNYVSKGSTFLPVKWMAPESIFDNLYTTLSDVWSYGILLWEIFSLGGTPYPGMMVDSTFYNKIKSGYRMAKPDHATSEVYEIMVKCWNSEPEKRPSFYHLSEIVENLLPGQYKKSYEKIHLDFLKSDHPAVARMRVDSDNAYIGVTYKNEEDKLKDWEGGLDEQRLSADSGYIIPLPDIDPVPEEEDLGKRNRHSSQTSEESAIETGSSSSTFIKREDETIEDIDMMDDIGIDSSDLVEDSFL
From the text: as §1

[4] = molecular target: T4, PAK1 (Homo sapiens, UniProt Q13153); conditions: n=1, read-out: Percent inhibition, PAK1
T4 construct: purchased DiscoverX (KINOMEscan)
T4 sequence (Q13153 whole entry): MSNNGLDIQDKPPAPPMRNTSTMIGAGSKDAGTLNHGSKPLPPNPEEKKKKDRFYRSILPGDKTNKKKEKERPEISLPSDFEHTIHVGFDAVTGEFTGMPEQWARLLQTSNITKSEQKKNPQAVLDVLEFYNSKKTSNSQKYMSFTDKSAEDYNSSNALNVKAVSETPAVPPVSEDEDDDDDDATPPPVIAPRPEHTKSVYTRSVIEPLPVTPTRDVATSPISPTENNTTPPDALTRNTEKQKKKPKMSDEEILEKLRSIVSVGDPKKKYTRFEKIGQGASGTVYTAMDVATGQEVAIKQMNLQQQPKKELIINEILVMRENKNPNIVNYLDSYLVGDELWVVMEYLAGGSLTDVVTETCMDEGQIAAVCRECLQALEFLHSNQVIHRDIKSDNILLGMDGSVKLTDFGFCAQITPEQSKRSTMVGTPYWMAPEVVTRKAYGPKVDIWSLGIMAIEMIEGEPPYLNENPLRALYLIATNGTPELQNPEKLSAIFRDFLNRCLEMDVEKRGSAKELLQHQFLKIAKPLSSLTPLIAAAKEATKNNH

[5] = molecular target: T5, PCTK1 (Homo sapiens, UniProt Q00536); conditions: n=1, read-out: Percent inhibition, PCTK1
T5 construct: purchased DiscoverX (KINOMEscan)

[6] = molecular target: T6, PIM2 (Homo sapiens, UniProt Q9P1W9); conditions: n=1, read-out: Percent inhibition, PIM2
T6 construct: purchased DiscoverX (KINOMEscan)
T6 sequence (Q9P1W9 whole entry): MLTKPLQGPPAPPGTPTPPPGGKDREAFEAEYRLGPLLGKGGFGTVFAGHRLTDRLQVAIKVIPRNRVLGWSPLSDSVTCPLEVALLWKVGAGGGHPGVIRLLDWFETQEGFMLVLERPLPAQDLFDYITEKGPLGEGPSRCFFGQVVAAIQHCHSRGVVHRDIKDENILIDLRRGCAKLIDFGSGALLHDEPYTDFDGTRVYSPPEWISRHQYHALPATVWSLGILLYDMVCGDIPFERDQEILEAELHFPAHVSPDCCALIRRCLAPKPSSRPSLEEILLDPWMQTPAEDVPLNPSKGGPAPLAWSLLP

[7] = molecular target: T7, PKMYT1 (Homo sapiens, UniProt Q99640); conditions: n=1, read-out: Percent inhibition, PKMYT1
T7 construct: purchased DiscoverX (KINOMEscan)
T7 sequence (Q99640 1-499): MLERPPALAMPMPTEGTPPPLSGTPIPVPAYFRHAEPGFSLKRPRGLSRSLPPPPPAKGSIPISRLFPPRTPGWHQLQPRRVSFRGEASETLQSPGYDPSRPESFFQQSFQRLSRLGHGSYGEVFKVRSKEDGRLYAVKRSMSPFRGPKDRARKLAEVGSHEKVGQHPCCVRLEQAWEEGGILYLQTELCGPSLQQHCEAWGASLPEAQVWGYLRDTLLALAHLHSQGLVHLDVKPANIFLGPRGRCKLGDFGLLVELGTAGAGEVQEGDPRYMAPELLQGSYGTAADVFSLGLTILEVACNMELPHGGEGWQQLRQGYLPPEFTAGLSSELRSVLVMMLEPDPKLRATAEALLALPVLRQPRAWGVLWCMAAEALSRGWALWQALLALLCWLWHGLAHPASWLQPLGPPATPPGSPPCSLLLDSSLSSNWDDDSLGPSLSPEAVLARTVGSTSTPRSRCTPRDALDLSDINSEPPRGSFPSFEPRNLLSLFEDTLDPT

[8] = molecular target: T8, PTK2B (Homo sapiens, UniProt Q14289); conditions: n=1, read-out: Percent inhibition, PTK2B
T8 construct: purchased DiscoverX (KINOMEscan)

[9] = molecular target: T9, RPS6KA4(Kin.Dom.1) (Homo sapiens, UniProt O75676); conditions: n=1, read-out: Percent inhibition, RPS6KA4(Kin.Dom.1)
T9 construct: RPS6KA4(Kin.Dom.1); purchased DiscoverX (KINOMEscan)
T9 sequence (O75676 1-371 limits assumed): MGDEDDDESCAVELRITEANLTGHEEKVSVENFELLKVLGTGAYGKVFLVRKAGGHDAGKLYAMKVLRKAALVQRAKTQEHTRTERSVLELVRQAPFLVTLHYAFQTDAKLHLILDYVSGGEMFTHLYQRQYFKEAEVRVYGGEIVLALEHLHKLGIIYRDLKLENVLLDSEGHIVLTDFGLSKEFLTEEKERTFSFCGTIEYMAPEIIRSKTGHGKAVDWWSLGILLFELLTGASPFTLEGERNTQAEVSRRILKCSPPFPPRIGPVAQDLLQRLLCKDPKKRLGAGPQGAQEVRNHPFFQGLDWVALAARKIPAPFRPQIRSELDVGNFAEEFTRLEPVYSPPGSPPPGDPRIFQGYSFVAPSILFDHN

[10] = molecular target: T10, SRC (Homo sapiens, UniProt P12931); conditions: n=1, read-out: Percent inhibition, SRC
T10 construct: purchased DiscoverX (KINOMEscan)

[11] = molecular target: T11, TESK1 (Homo sapiens, UniProt Q15569); conditions: n=1, read-out: Percent inhibition, TESK1
T11 construct: purchased DiscoverX (KINOMEscan)
T11 sequence (Q15569 whole entry): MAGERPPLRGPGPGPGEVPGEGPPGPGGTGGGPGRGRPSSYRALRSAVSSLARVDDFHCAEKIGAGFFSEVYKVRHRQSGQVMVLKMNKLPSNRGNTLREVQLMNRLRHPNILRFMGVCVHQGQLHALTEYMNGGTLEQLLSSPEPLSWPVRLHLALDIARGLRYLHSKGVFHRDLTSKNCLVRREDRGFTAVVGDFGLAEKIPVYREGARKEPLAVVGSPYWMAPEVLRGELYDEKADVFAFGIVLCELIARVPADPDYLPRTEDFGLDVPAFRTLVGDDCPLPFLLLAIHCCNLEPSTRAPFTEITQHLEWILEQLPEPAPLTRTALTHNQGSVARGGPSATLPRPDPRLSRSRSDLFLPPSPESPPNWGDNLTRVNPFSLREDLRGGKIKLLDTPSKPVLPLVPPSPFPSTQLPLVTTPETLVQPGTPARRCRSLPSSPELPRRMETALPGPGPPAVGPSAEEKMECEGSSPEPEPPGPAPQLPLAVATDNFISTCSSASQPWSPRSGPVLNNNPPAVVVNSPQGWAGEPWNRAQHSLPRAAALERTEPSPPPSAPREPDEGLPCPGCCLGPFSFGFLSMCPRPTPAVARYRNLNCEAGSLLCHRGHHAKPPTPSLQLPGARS

[12] = molecular target: T12, TNIK (Homo sapiens, UniProt Q9UKE5); conditions: n=1, read-out: Percent inhibition, TNIK
T12 construct: purchased DiscoverX (KINOMEscan)

[13] = molecular target: T13, TRKA (Homo sapiens, UniProt P04629); conditions: n=1, read-out: Percent inhibition, TRKA
T13 construct: purchased DiscoverX (KINOMEscan)
T13 sequence (P04629 33-796): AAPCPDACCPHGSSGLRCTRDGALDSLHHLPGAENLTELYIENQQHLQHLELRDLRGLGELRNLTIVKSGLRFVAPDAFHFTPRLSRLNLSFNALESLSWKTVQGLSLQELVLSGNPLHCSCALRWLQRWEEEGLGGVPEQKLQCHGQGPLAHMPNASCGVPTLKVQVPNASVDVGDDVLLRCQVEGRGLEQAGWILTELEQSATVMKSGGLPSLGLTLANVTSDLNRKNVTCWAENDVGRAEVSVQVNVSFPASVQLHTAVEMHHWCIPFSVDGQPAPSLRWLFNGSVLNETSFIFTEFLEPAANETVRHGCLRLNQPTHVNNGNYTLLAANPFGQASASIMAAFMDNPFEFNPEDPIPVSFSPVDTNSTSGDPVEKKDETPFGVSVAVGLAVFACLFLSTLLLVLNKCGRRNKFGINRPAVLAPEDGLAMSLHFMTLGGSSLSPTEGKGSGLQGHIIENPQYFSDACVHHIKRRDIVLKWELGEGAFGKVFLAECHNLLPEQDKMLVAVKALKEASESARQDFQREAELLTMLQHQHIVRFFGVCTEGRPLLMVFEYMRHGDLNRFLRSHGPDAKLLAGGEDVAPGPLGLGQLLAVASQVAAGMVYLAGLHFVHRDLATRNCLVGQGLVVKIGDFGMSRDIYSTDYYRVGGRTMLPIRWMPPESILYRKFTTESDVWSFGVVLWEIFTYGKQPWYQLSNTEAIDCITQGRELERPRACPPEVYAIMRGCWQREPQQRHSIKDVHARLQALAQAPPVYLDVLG

[14] = molecular target: T14, TYK2(Kin.Dom.2) (Homo sapiens, UniProt P29597); conditions: n=1, read-out: Percent inhibition, TYK2(Kin.Dom.2)
T14 construct: TYK2(Kin.Dom.2); purchased DiscoverX (KINOMEscan)
T14 sequence (P29597 889-1187 limits assumed): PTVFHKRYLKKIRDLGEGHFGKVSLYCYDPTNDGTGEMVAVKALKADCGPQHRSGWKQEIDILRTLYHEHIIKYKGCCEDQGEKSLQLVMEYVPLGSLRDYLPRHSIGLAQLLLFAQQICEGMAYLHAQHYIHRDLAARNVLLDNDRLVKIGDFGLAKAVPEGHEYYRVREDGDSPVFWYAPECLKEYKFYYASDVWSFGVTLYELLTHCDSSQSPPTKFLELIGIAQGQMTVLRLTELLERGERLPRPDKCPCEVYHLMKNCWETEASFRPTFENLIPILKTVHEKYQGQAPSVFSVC

[15] = 10 µM, n=1, kinase LKB1, read-out: Percent inhibition LKB1
[16] = KINOMEscan, 10 µM, n=1, read-out: Percent inhibition, PDGFRA
[17] = 10 μM, n = 1, read-out: percent inhibition PDGFRα

T1 sequence (P35968 20-1356): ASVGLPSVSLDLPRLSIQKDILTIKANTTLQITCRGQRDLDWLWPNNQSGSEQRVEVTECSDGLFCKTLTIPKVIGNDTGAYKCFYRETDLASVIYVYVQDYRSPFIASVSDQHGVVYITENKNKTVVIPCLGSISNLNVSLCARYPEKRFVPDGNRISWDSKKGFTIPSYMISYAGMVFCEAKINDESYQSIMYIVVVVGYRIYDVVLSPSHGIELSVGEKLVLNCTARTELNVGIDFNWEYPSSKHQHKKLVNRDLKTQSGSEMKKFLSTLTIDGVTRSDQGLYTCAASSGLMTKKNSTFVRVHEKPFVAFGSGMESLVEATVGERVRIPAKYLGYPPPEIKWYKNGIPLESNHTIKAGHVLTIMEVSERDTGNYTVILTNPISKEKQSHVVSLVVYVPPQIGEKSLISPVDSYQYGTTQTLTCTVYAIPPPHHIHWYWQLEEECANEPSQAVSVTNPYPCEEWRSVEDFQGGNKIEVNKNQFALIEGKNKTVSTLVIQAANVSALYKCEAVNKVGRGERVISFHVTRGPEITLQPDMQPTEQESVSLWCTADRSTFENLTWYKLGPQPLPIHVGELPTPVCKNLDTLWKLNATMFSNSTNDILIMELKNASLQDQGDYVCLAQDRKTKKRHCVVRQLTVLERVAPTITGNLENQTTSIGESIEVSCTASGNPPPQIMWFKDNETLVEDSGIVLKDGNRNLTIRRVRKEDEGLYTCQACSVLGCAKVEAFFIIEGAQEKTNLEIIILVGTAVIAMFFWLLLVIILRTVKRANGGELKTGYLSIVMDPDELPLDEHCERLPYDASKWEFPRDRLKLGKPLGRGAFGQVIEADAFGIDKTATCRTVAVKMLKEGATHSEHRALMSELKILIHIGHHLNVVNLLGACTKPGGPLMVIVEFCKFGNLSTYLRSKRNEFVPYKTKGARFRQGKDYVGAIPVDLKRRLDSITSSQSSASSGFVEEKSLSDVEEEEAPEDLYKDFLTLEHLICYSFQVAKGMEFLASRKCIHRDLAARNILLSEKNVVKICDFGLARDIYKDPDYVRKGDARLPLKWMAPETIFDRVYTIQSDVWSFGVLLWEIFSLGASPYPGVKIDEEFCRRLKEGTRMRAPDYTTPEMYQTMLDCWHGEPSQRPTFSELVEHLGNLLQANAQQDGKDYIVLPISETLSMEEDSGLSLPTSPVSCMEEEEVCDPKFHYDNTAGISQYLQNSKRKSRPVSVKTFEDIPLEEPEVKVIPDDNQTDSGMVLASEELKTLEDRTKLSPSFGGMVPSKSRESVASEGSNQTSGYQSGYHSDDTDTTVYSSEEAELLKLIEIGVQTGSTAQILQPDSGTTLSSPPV

SMILES | inhibition at 10 µM [1] | inhibition at 10 µM [2, 15] | inhibition at 10 µM [3, 16] | inhibition at 10 µM [4] | inhibition at 10 µM [5] | inhibition at 10 µM [6] | inhibition at 10 µM [7] | inhibition at 10 µM [8] | inhibition at 10 µM [9] | inhibition at 10 µM [10] | inhibition at 10 µM [11] | inhibition at 10 µM [12] | inhibition at 10 µM [13] | inhibition at 10 µM [14] | inhibition at 10 µM ([2]; 10 μM, n = 1, read-out: percent inhibition LKB1) | inhibition of KDR (VEGFR2), in words ([1]; kinome profiling, 10 μM) | inhibition at 10 µM [3, 17]
CN1CCN(c2ccc(Nc3nccc(-c4cnn5ncccc45)n3)cc2C#N)CC1 [Compound 1] | 100% | 100% | 100% | 99.8% | 100% | 99.7% | 0% | 83.9% | 0% | 99.2% | 0% | 98.9% | 91.3% | 88.2% |  |  | 
COc1ccc(Nc2nccc(-c3cnn4ncccc34)n2)cc1 [Compound 2] | 92.9% | 96.1% | 99.9% | 0% | 100% | 81.1% | 0% | 89.6% | 0% | 85% | 0% | 93.4% | 0% | 0% |  |  | 
Cc1ccc(O)cc1Nc1ccnc(Nc2cccc(C(N)=O)c2)n1 [Compound 3] | 81.5% | 74.3% | 99.2% | 79.3% | 0% | 0% | 97.9% | 83.8% | 0% | 100% | 0% | 99.3% | 0% | 94% |  |  | 
Cc1ccc(O)cc1N(C)c1ccnc(Nc2cccc(S(N)(=O)=O)c2)n1 [Compound 4] | 83.7% | 77.3% | 100% | 98.5% | 96.9% | 0% | 100% | 99% | 0% | 100% | 79.9% | 99.6% | 0% | 95.6% |  |  | 
Fc1cccc(COc2ccc(Nc3ncnc4c3CN(CCN3CCOCC3)CC4)cc2Cl)c1 [Compound 6] | 0% | 0% | 0% | 0% | 0% | 0% | 0% | 0% | 0% | 0% | 0% | 0% | 0% | 0% |  |  | 
COc1cc(Nc2nccc(-c3sc(N)nc3-c3cccc(NC(=O)c4c(F)cccc4F)c3)n2)cc(OC)c1OC [Compound 7] | 89.5% | 0% | 100% | 99.8% | 0% | 0% | 0% | 99.9% | 98.9% | 100% | 100% | 99.9% | 0% | 97.2% |  |  | 
C[C@@H](Oc1cc(-c2cnc3ccccn23)sc1C(N)=O)c1ccccc1Cl [Compound 8] | 0% | 98.3% | 0% | 0% | 0% | 0% | 81.5% | 0% | 0% | 0% | 0% | 0% | 0% | 0% |  |  | 
c1ccc(COc2cccc(-c3ccnc4[nH]ccc34)c2)cc1 [Compound 9] | 0% | 99.5% | 0% | 0% | 0% | 0% | 0% | 0% | 0% | 0% | 0% | 0% | 0% | 0% | ≥ 99% |  | 
Clc1ccc(Nc2ncc(-c3ccccc3)s2)cc1 [Compound 10] | 0% | 67.6% | 98.9% | 0% | 0% | 0% | 0% | 0% | 0% | 0% | 0% | 0% | 0% | 0% |  | relatively weak inhibition | > 90%
Nc1ncc2c(-c3ccncc3)c[nH]c2n1 [Compound 11] | 0% | 80% | 100% | 0% | 78.2% | 0% | 0% | 0% | 0% | 93.3% | 0% | 93.7% | 0% | 0% |  |  | ≥ 99%
